According to US20120130481A1, “LOCAL VASCULAR DELIVERY OF ADENOSINE A2A RECEPTOR AGONISTS IN COMBINATION WITH OTHER AGENTS TO REDUCE MYOCARDIAL INJURY” (priority 2010, published 2012):

Experiments:
[1] = Porcine drug elution PK study of dual drug eluting coating (in vivo release); parameters: species or system pig; details: after eight (8) days of implantation, single layer configuration of FIG. 15 (FIG. 13)
Excerpt: Another critical parameter for the performance of the thrombus resistance of a device coated with cilostazol is the duration of the drug release from the coating. This is of particular significance in the two weeks after device implantation. In the porcine drug elution PK studies of the dual drug eluting coating, both cilostazol and sirolimus were slowly released from the coating, resulting in a sustained drug release profile. The purpose of the porcine PK study is to assess the local pharmacokinetics of a drug eluting stent at a given implantation time. Normally three stents are implanted in three different coronary arteries in a pig for a given time point and then retrieved for total drug recovery analysis. The stents are retrieved at predetermined time points; namely, 1, 3 and 8 days. The stents are extracted and the total amount of drug remaining on the stents is determined by analysis utilizing HPLC (high performance liquid chromatography) for total drug amount. The difference between the original amount of drug on the stent and the amount of drug retrieved at a given time represents the amount of drug released in that period. The continuous release of drug into surrounding arterial tissue is what prevents the neointimal growth and restenosis in the coronary artery. A normal plot represents the percentage of total drug released (%, y-axis) vs. time of implantation (day, x-axis). […]

[2] = In vivo release kinetics from dual drug reservoir stent, porcine coronary artery model; details: at thirty (30) days, 3.5×17 mm reservoir stent, PLGA75/25, in vivo (FIG. 18)
Excerpt: FIG. 18 graphically illustrates the release kinetic curves for sirolimus 1902 and cilostazol 1904 over a period of thirty (30) days from an in vivo release kinetics study. As illustrated, the release kinetics are similar for both drugs with approximately seventy (70) percent of both drugs being released from the stent at thirty (30) days (sirolimus being a little higher than the cilostazol). A 3.5×17 mm stent with reservoirs was utilized in the study. Each drug was placed individually in a reservoir to create an alternating pattern. The basic construct of each reservoir fill was a base (luminal side of the stent) comprising only polymer (PLGA75/25) and no drug, a drug matrix either comprising 120.4 micro grams of cilostazol and 197.1 micro grams of polymer (PLGA75/25) or 146.9 micro grams of sirolimus and 175.0 micro grams of polymer (PLGA75/25), and a cap comprising only polymer (PLGA75/25). The stent was placed in a standard porcine coronary artery model to evaluate the in vivo release kinetics and tissue concentration of both drugs released from the stent over time.

[3] = test system: platelet deposition and thrombus formation on the stent surface; assay: In vitro bovine blood loop model (anti-thrombotic activity); details: FIG. 12, cilostazol in sirolimus/cilostazol coatings
Excerpt: The anti-thrombotic efficacy of the above-described three configurations is illustrated in FIG. 12. FIG. 12 illustrates the anti-thrombotic properties of the sirolimus/cilostazol combination coatings described above in an in vitro bovine blood loop model. In the in vitro bovine blood loop model, fresh bovine blood is heparinized to adjust for acute clotting time (ACT) of about two hundred (200) seconds. The platelet content in the blood is labeled through the use of Indium 111. In the study, a stent is deployed in a silicone tube, which is part of a closed loop system for blood circulation. The heparinzed blood is circulated through the closed loop system by means of a circulating pump. Activated platelets, fibrin and thrombus builds up on a stent surface over time and reduces the flow rate of blood through the stented loop. The flow is stopped when the flow rate is reduced to fifty (50) percent of the starting value or at ninety (90) minutes if none of the tested stent reduces the flow by fifty (50) percent. The total radioactivity (In 111) on the stent surface is counted by a […] and normalized with the control unit, set as one hundred (100) percent in the chart. […]

[4] = cited from earlier work
[5] = In vitro release kinetics of sirolimus/cilostazol stent coatings; assay type: physicochemical

CO[C@H]1C[C@@H]2CC[C@@H](C)[C@@](O)(O2)C(=O)C(=O)N2CCCC[C@H]2C(=O)O[C@H]([C@H](C)C[C@@H]2CC[C@@H](O)[C@H](OC)C2)CC(=O)[C@H](C)/C=C(\C)[C@@H](O)[C@@H](OC)C(=O)[C@H](C)C[C@H](C)/C=C/C=C/C=C/1C [sirolimus]
drug remained in the drug coating [1]: ~80% | drug released from the stent [2]: ~70%

O=C1CCc2cc(OCCCCc3nnnn3C3CCCCC3)ccc2N1 [cilostazol, 6[4-(1-cyclohexyl-1H-tetrazol-5-yl)-butoxy]-3,4-dihydro-2-(1H)-quinolinone]
thrombus formation [3]: significantly reduces thrombus formation | solubility in water [4]: relatively low solubility in water | drug remained in the drug coating [1]: ~80% | drug release rate, 200 µg vs 100 µg BMA diffusion overcoat ([5]; configuration of FIG. 7 (200 µg BMA) compared with FIG. 9 (100 µg BMA), FIGS. 8 and 10): comparatively slower | in vitro release rate compared to the dual drug base coating ([5]; configuration of FIG. 7 vs FIG. 15): much faster rate | in vitro release ([5]; single layer configuration of FIG. 15 (FIG. 14)): ~35% | drug released from the stent [2]: ~70%
